Measurements: PubChem BioAssay AID220 (DTP/NCI, 2004)
Values joined by “and” are separate entries in the source; they are usually repeats but may differ in a detail not shown here. Equal entries are not always repeated. Inconclusive results are not listed.

System: CD8F1 mice, subcutaneous mammary adenocarcinoma, T/C%
Test: NCI In Vivo Anticancer Drug Screen. Data for tumor model Mammary Adenocarcinoma CD8F1 (subcutaneous) in CD8F1
Details: higher = larger tumour
Method in brief: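 Tumor-bearing mice, transplantable model; readout survival or tumor size; value = treated (T) / vehicle control (C).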

[1] = endpoint: median tumor weight (est.), dose: 25.0 mg/kg/injection, schedule: Q07DX005 (ip), vehicle: Klucel (hydroxypropylcellulose) (HPC)

With `Cc1ncc([N+](=O)[O-])n1CCSC(N)=O` the T/C (endpoint: median tumor weight (est.), dose: 12.5 mg/kg/injection, schedule: Q07DX005 (ip), vehicle: saline with Tween-80) was 124 % of control and 99 % of control, the T/C (endpoint: median tumor weight (est.), dose: 50.0 mg/kg/injection, schedule: Q07DX005 (ip), vehicle: saline with Tween-80) was 123 % of control and the T/C (endpoint: median tumor weight (est.), dose: 100.0 mg/kg/injection, schedule: Q07DX005 (ip), vehicle: saline with Tween-80) was 96 % of control. For the same molecule, the T/C (endpoint: median tumor weight (est.), dose: 400.0 mg/kg/injection, schedule: Q07DX005 (ip), vehicle: saline with Tween-80) was 66 % of control.

`CNC(=O)OCc1c(COC(=O)NC)c(-c2ccc(Cl)c(Cl)c2)n2c1Cc1ccccc1C2` was tested, and the T/C (endpoint: median tumor weight change, dose: 125.0 mg/kg/injection, schedule: Q01DX001 (ip), vehicle: distilled water + Tween-80) was 77 % of control, the T/C (endpoint: median tumor weight change, dose: 250.0 mg/kg/injection, schedule: Q01DX001 (ip), vehicle: distilled water + Tween-80) was 67 % of control and the T/C (endpoint: median tumor weight change, dose: 500.0 mg/kg/injection, schedule: Q01DX001 (ip), vehicle: distilled water + Tween-80) was -12 % of control. For the same molecule, the T/C (endpoint: median tumor weight change, dose: 1000.0 mg/kg/injection, schedule: Q01DX001 (ip), vehicle: distilled water + Tween-80) was -53 % of control and the T/C (endpoint: median tumor weight change, dose: 2000.0 mg/kg/injection, schedule: Q01DX001 (ip), vehicle: distilled water + Tween-80) was -71 % of control.

With `CC(=O)NCCCCCCNC(C)=O` the T/C (endpoint: median tumor weight change, dose: 125.0 mg/kg/injection, schedule: Q01DX001 (ip), vehicle: saline) was 58 % of control, the T/C (endpoint: median tumor weight change, dose: 500.0 mg/kg/injection, schedule: Q01DX001 (ip), vehicle: saline) was 67 % of control and the T/C (endpoint: median tumor weight change, dose: 1000.0 mg/kg/injection, schedule: Q01DX001 (ip), vehicle: saline) was 52 % of control and 72 % of control. The T/C (endpoint: median tumor weight change, dose: 4000.0 mg/kg/injection, schedule: Q01DX001 (ip), vehicle: saline) was 39 % of control.

With `CCCCCC[C@H]([C@H](C)O)n1cnc2c(N)ncnc21` the T/C (endpoint: median tumor weight (est.), dose: 12.5 mg/kg/injection, schedule: Q07DX005 (ip), vehicle: Klucel (hydroxypropylcellulose) (HPC)) was 60 % of control, the T/C [1] was 305 % of control and the T/C (endpoint: median tumor weight (est.), dose: 50.0 mg/kg/injection, schedule: Q07DX005 (ip), vehicle: Klucel (hydroxypropylcellulose) (HPC)) was 206 % of control and 84 % of control. For the same molecule, the T/C (endpoint: median tumor weight (est.), dose: 100.0 mg/kg/injection, schedule: Q07DX005 (ip), vehicle: Klucel (hydroxypropylcellulose) (HPC)) was 106 % of control, the T/C (endpoint: median tumor weight change, dose: 50.0 mg/kg/injection, schedule: Q01DX001 (ip), vehicle: Klucel (hydroxypropylcellulose) (HPC)) was 68 % of control and the T/C (endpoint: median tumor weight change, dose: 100.0 mg/kg/injection, schedule: Q01DX001 (ip), vehicle: Klucel (hydroxypropylcellulose) (HPC)) was 106 % of control. The T/C (endpoint: median tumor weight change, dose: 200.0 mg/kg/injection, schedule: Q01DX001 (ip), vehicle: Klucel (hydroxypropylcellulose) (HPC)) was 79 % of control.

`Cc1cc(O)c(N=Nc2ccc(C(=O)O)cc2)cc1C` was tested, and the T/C (endpoint: mean tumor weight (est.), dose: 200.0 mg/kg/injection, schedule: Q07DX001 (ip), vehicle: carboxymethylcellulose (CMC)) was 82 % of control, the T/C (endpoint: mean tumor weight (est.), dose: 400.0 mg/kg/injection, schedule: Q07DX001 (ip), vehicle: carboxymethylcellulose (CMC)) was 74 % of control and the T/C (endpoint: mean tumor weight, dose: 100.0 mg/kg/injection, schedule: Q07DX007 (ip), vehicle: saline) was 106 % of control. For the same molecule, the T/C (endpoint: mean tumor weight, dose: 200.0 mg/kg/injection, schedule: Q07DX007 (ip), vehicle: saline) was 20 % of control, the T/C (endpoint: mean tumor weight, dose: 400.0 mg/kg/injection, schedule: Q07DX007 (ip), vehicle: saline) was 35 % of control and the T/C (endpoint: median tumor weight (est.), dose: 25.0 mg/kg/injection, schedule: Q07DX005 (ip), vehicle: suspension in saline) was 98 % of control. For the same molecule, the T/C (endpoint: median tumor weight (est.), dose: 50.0 mg/kg/injection, schedule: Q07DX005 (ip), vehicle: suspension in saline) was 90 % of control, the T/C (endpoint: median tumor weight (est.), dose: 100.0 mg/kg/injection, schedule: Q07DX005 (ip), vehicle: suspension in saline) was 98 % of control and the T/C (endpoint: median tumor weight (est.), dose: 200.0 mg/kg/injection, schedule: Q07DX005 (ip), vehicle: suspension in saline) was 108 % of control. The T/C (endpoint: median tumor weight (est.), dose: 400.0 mg/kg/injection, schedule: Q07DX005 (ip), vehicle: suspension in saline) was 98 % of control.

In the case of `O=C1C(NCC(O)CO)=C(N2CC2)C(=O)C(NCC(O)CO)=C1N1CC1` (stereo not drawn), the T/C (endpoint: median tumor weight change, dose: 4.0 mg/kg/injection, schedule: Q01DX001 (ip), vehicle: saline) is reported as 123 % of control, the T/C (endpoint: median tumor weight change, dose: 4.0 mg/kg/injection, schedule: Q01DX001 (ip), vehicle: suspension in saline) is reported as 55 % of control and the T/C (endpoint: median tumor weight change, dose: 8.0 mg/kg/injection, schedule: Q01DX001 (ip), vehicle: saline) is reported as 19 % of control. For the same molecule, the T/C (endpoint: median tumor weight change, dose: 8.0 mg/kg/injection, schedule: Q01DX001 (ip), vehicle: suspension in saline) was 35 % of control (2×) and 55 % of control and the T/C (endpoint: median tumor weight change, dose: 16.0 mg/kg/injection, schedule: Q01DX001 (ip), vehicle: saline) was 3 % of control.

For `CCOC(=O)Nc1cc2c(c(N)n1)N=C(CN(C)c1ccccc1)CN2`, the T/C (endpoint: median tumor weight (est.), dose: 3.12 mg/kg/injection, schedule: Q07DX005 (ip), vehicle: Klucel (hydroxypropylcellulose) (HPC)) was 268 % of control, the T/C (endpoint: median tumor weight (est.), dose: 6.25 mg/kg/injection, schedule: Q07DX005 (ip), vehicle: Klucel (hydroxypropylcellulose) (HPC)) was 70 % of control and the T/C [1] was 69 % of control and 79 % of control.
